Measurements reported in patent US20240269139A1, “COMPOUNDS FOR TARGETED PROTEIN DEGRADATION OF KINASES” (DANA-FARBER CANCER INSTITUTE, INC., priority 2020, published 2024).
Where two headings read alike, the source gives them in different places.

What was measured:
[1] = molecular target: T1, protein kinases (human kinome) (Homo sapiens, UniProt Q86YV5); assay type: cell-based; conditions: PRAG1 Q86YV5
T1 sequence (Q86YV5 1-1406): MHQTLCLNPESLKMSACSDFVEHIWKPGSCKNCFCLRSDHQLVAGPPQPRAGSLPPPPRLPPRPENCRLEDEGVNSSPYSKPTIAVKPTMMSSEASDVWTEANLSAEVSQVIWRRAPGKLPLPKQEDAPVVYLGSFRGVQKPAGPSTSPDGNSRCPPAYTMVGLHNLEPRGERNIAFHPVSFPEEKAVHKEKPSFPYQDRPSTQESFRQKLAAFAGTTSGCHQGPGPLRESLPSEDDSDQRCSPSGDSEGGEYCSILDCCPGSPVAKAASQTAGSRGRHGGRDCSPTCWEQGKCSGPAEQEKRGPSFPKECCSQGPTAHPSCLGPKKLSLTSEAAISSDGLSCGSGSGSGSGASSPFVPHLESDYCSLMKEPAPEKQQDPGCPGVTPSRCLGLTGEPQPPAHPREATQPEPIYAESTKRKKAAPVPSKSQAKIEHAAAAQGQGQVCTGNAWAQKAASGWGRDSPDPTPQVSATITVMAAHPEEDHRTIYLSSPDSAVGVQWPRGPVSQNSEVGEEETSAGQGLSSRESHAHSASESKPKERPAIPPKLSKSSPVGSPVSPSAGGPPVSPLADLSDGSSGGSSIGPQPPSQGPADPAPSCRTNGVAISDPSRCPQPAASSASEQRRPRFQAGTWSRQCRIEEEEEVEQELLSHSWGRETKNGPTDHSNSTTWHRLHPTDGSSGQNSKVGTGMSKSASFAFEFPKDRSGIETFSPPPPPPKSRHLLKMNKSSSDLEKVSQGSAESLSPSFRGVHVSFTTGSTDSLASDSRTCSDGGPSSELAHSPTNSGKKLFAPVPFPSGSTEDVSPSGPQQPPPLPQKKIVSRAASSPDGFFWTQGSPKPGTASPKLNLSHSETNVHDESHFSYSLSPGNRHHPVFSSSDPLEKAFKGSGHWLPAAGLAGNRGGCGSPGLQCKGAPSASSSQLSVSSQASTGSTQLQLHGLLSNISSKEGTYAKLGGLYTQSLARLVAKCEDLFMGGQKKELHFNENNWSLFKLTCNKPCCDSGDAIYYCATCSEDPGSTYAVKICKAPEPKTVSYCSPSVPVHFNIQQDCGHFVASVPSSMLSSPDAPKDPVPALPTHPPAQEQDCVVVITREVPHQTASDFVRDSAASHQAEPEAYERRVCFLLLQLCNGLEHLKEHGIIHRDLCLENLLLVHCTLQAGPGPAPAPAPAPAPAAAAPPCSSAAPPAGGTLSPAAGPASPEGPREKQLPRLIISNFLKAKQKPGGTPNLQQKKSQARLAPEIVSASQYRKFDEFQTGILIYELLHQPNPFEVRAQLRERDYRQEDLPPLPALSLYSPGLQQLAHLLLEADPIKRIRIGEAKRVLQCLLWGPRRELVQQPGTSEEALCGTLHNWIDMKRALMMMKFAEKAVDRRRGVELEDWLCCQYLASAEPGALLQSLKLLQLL

[2] = molecular target: T2, extended human kinome (kinase-like proteins) (Homo sapiens, UniProt Q9UHH9); assay: Whole cell quantitative proteomics: extended kinome hits; conditions: Accession Q9UHH9
T2 sequence (Q9UHH9 1-426): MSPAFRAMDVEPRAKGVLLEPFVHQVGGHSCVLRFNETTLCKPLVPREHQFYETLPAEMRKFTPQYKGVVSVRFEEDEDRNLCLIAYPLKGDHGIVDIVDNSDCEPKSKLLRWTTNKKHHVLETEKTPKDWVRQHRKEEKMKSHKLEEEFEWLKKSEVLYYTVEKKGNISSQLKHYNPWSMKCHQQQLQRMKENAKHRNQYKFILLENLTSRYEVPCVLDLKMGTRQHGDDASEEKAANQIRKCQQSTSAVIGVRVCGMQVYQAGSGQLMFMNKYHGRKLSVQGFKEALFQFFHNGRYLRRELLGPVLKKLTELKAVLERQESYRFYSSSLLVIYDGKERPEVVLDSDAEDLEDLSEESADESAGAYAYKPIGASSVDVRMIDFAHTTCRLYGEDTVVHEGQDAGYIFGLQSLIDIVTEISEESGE

[3] = molecular target: T3, CRBN (Homo sapiens, UniProt Q96SW2); assay: Competitive displacement assay for cellular CRBN engagement (BRD4BD2-GFP reporter, dBET6); assay type: cell-based, H. sapiens; conditions: 5 hours in presence of dBET6
T3 construct: HEK293T cells stably expressing the BRD4BD2-GFP with mCherry reporter; endogenous in cells; host or cells: HEK293T stably expressing BRD4BD2-GFP / mCherry reporter
Protocol: HEK293T cells stably expressing the BRD4BD2-GFP with mCherry reporter were seeded at 30-50% confluency in 384-well plates with 50 μL FluoroBrite™ Dulbecco's Modified Eagle's medium (DMEM) media (Thermo Fisher Scientific. A18967) containing 10% fetal bovine serum (FBS) per well a day before compound treatment. Degrader titrations and 100 nM dBET6 or 250 nM AT1 were dispensed using a D300e Digital Dispenser (HP), normalized to 0.5% DMSO, and incubated with cells for 5 hours. Assay plates were imaged using Acumen® (TTP Labtech), as described above.

[4] = test system: protein kinases in MOLT-4 cells; assay: Whole cell quantitative proteomics in MOLT-4 cells; conditions: for GCK binding and degradation: 1 μM, 5 h; for kinase degradation over time: MOLT-4, 1 μM, 1, 2, 4, 8 and 12 h
[5] = molecular target: protein kinases (human kinome) (Homo sapiens, UniProt Q00536); assay type: cell-based

CC(C)S(=O)(=O)c1ccccc1Nc1nc(Nc2ccc(N3CCN(CCOCCOCCNC(=O)CNc4cccc5c4C(=O)N(C4CCC(=O)NC4=O)C5=O)CC3)cc2)ncc1Cl (centres unmarked) [TL12.186]
logFC ([1]; experiment wp131): −0.4243 | logFC PRAG1 ([1]; experiment wp131): −0.4243 | logFC ([1]; experiment wp137): −0.3459 | logFC PRAG1 ([1]; experiment wp137): −0.3459 | logFC IP6K2 ([2]; experiment wp137): −0.7538

CC(C)S(=O)(=O)c1ccccc1Nc1nc(Nc2ccc(N3CCN(CCOCCNC(=O)CNc4cccc5c4C(=O)N(C4CCC(=O)NC4=O)C5=O)CC3)cc2)ncc1Cl (centres unmarked) [SK-3-91]
cellular permeability / CRBN engagement [3]: able to permeate the cell membrane and bind to the CRBN E3 ligase | GCK binding and degradation [4]: not degraded | kinase degradation over time [4]: most kinases showed increased degradation over time

Cc1cnc(Nc2ccc(N3CCN(CCCCCCC(=O)N[C@H](C(=O)N4C[C@H](O)C[C@H]4C(=O)N[C@@H](C)c4ccc(-c5scnc5C)cc4)C(C)(C)C)CC3)cc2)nc1Nc1cccc(S(=O)(=O)NC(C)(C)C)c1 [JWG.123]
logFC CDK16 (Q00536-1) ([5]; Experiment wp195): −0.5026 | logFC of CDK16 (Q00536-1) ([5]; Experiment wp195): −0.5026

Cc1ccc(NC(=O)c2cccc(C(F)(F)F)c2)cc1N1Cc2cnc(Nc3ccc(N4CCN(Cc5cn(CCCCCOc6cccc7c6C(=O)N(C6CCC(=O)NC6=O)C7=O)nn5)CC4)nc3)nc2N(C)C1=O (centres unmarked) [DB0646, N-(3-(7-((6-(4-((1-(5-((2-(2,6-Dioxopiperidin-3-yl)-1,3-dioxoisoindolin-4-yl)oxy)pentyl)-1H-1,2,3-triazol-4-yl)methyl)piperazin-1-v)pyridin-3-yl)amino)-1-methyl-2-oxo-1,4-dihydropyrimido[4,5-d]pyrimidin-3(2H)-yl)-4-methylphenyl)-3-(trifluoromethyl)benzamide]
cellular permeability / CRBN engagement [3]: able to permeate the cell membrane and bind to the CRBN E3 ligase | GCK binding and degradation [4]: bound and degraded | kinase degradation over time [4]: most kinases showed increased degradation over time

C[C@@H]1C[C@@H](O)c2ncnc(N3CCN(C(=O)[C@H](CNCCCCCCCCCCc4cccc5c4C(=O)N(C4CCC(=O)NC4=O)C5=O)c4ccc(Cl)cc4)CC3)c21 (some centres unmarked) [INY.03.041.01]
logFC IP6K2 ([2]; experiment wp118): −0.662 | logFC IP6K2 ([2]; experiment wp135, 4 hr): −0.3251

Cc1ccc(C(=O)Nc2ccc(CN3CCN(CCCOCCOCCOCCNC(=O)COc4cccc5c4C(=O)N(C4CCC(=O)NC4=O)C5=O)CC3)c(C(F)(F)F)c2)cc1C#Cc1cnc2cccnn12 (centres unmarked) [SB1-G-187, N-(4-((4-(1-((2-(2,6-dioxopiperidin-3-yl)-1,3-dioxoisoindolin-4-yl)oxy)-2-oxo-6,9,12-trioxa-3-azapentadecan-15-yl)piperazin-1-yl)methyl)-3 (trifluoromethyl)phenyl)-3-(imidazo[1,2-b]pyridazin-3-ylethynyl)-4-methylbenzamide]
cellular permeability / CRBN engagement [3]: able to permeate the cell membrane and bind to the CRBN E3 ligase | GCK binding and degradation [4]: bound and degraded

CC(C)S(=O)(=O)c1ccccc1Nc1nc(Nc2ccc(N3CCN(CCOCCNC(=O)CNc4cccc5c4C(=O)N(C4CCC(=O)NC4=O)C5=O)CC3)cc2)ncc1Cl (centres unmarked) [SK.3.91]
logFC CDK16 (Q00536-1) ([5]; Experiment wp172): −0.8169 | logFC of CDK16 (Q00536-1) ([5]; Experiment wp172): −0.8169 | logFC ([1]; experiment wp107): −0.3692 | logFC PRAG1 ([1]; experiment wp107): −0.3692 | logFC ([1]; experiment wp133, 2 hr): −0.3667 | logFC PRAG1 ([1]; experiment wp133, 2 hr): −0.3667 | logFC ([1]; experiment wp133, 4 hr): −0.4352 | logFC PRAG1 ([1]; experiment wp133, 4 hr): −0.4352 | logFC IP6K2 ([2]; experiment wp016, 1 uM): −0.9368 | logFC IP6K2 ([2]; experiment wp107): −1.472 | logFC IP6K2 ([2]; experiment wp133, 1 hr): −0.4547 | logFC IP6K2 ([2]; experiment wp133, 2 hr): −0.6461 | logFC IP6K2 ([2]; experiment wp133, 4 hr): −0.9692 | logFC IP6K2 ([2]; experiment wp160, 2 hr): −0.4937 | logFC IP6K2 ([2]; experiment wp160, 4 hr): −0.6281
